Consider 9 compounds from patent US20110112124A1, “FUNGICIDAL COMPOSITIONS” (SYNGENTA CROP PROTECTION, INC., priority 2008, published 2011).

Molecules are shown by their SMILES. Read-outs that look alike come from different tables or passages of the source.

The test system of assay [1] is Mycosphaerella graminicola (Septoria tritici). Put plainly: Example B13: liquid culture test, Septoria blotch. It is filed as cell-based.
In assay [2] the test system is Plasmopara viticola. As to the kind of experiment: Example B18: grape leaf disc preventative test.
Protocol: Leaf disks or leaf segments of various plant species were cut from plants grown in the greenhouse. The cut leaf disks or segments were placed in multiwell plates (24-well format) onto water agar. The leaf disks were sprayed with a test solution before (preventative) or after (curative) inoculation. Compounds to be tested were prepared as DMSO solutions (max. 10 mg/ml) which were diluted to the appropriate concentration with 0.025% Tween20 just before spraying. The inoculated leaf disks or segments were incubated under defined conditions (temperature, relative humidity, light, etc.) according to the respective test system. A single evaluation of disease level was carried out 3-9 days after inoculation, depending on the pathosystem. Percent disease control relative to the untreated check leaf disks or segments was then calculated.
The leaf disks were inoculated with a spore suspension of the fungus 1 day after application. The inoculated leaf disks were incubated at 19° C. and 80% rh under a light regime of 12 h light/12 h darkness in a climate cabinet and the activity of a compound was assessed as percent disease control compared to untreated when an appropriate level of disease damage appears in untreated check leaf disks (6-8 days after application).
The subject of assay [3] is Tapesia yallundae W-type (Pseudocercosporella herpotrichoides). As to the kind of experiment: Example B10: liquid culture test, eyespot. It is filed as cell-based.
Assay [4] has as its system Sclerotinia sclerotiorum. Put plainly: Example B8: liquid culture test, cottony rot. It is filed as cell-based.
Assay [5] has as its system Mycosphaerella graminicola (Septoria tritici). As to the kind of experiment: Example B9: liquid culture test, Septoria blotch. The format is cell-based.
The subject of assay [6] is Tapesia yallundae W-type (Pseudocercosporella herpotrichoides). As to the kind of experiment: Example B7: liquid culture test, eyespot. It is filed as cell-based.
For assay [7] the test system is unchanged. Put plainly: Example B14: liquid culture test, eyespot. It is filed as cell-based.
Assay [8] concerns Thanatephorus cucumeris (Rhizoctonia solani). Put plainly: Example B15: liquid culture test, foot rot, damping-off. The format is cell-based.
Assay [9] relates to Botryotinia fuckeliana (Botrytis cinerea). Put plainly: Example B16: liquid culture test, gray mould. It is filed as cell-based.
In assay [10] the test system is Mycosphaerella arachidis (Cercospora arachidicola). As to the kind of experiment: Example B4: liquid culture test, early leaf spot. The format is cell-based.
The subject of assay [11] is Botryotinia fuckeliana (Botrytis cinerea). Put plainly: Example B11: liquid culture test, gray mould. The format is cell-based.
Assay [12] relates to Mycosphaerella graminicola (Septoria tritici). As to the kind of experiment: Example B17: liquid culture test, Septoria blotch. It is filed as cell-based.
For assay [13], the system named is Pythium ultimum. Put plainly: Example B2: liquid culture test, seedling damping off. The format is cell-based.
Assay [14] relates to Fusarium culmorum. The format is cell-based.
The subject of assay [15] is Sclerotinia sclerotiorum. As to the kind of experiment: Example B3: liquid culture test, cottony rot. It is filed as cell-based.
The test system of assay [16] is Mycosphaerella graminicola (Septoria tritici). Put plainly: Example B6: liquid culture test, Septoria blotch. The format is cell-based.
Assay [17] concerns Tapesia yallundae W-type (Pseudocercosporella herpotrichoides). Put plainly: Example B5: liquid culture test, eyespot. It is filed as cell-based.
Assay [18] relates to Botryotinia fuckeliana (Botrytis cinerea). Put plainly: Example B1: liquid culture test, gray mould. The format is cell-based.

On to `CCCC(Cn1cncn1)c1ccc(Cl)cc1Cl` (stereo not drawn) [Penconazole, penconazole], for which the “% action” value in assay [1] (0.078 ppm) came to 0%; in assay [1] (0.156 ppm), 0%; in [1] (0.313 ppm), 0%; in assay [1] (0.625 ppm) it was 20%.

With `C#CCOc1ccc(CCNC(=O)C(OCC#C)c2ccc(Cl)cc2)cc1OC` (stereo not drawn) [Mandipropamid, mandipropamid, reference compound], the figures for the “% action” value in [2] (0.625 ppm), in assay [2] (1.250 ppm) and in assay [2] (2.500 ppm) were 30%, 37% and 67%, respectively.

In the case of `N#Cc1c(Cl)c(Cl)c(Cl)c(C#N)c1Cl` [Chlorothalonil, chlorothalonil, reference compound], the “% action” value in assay [3] (0.156 ppm) came to 20%; in assay [3] (0.313 ppm), 20%; in assay [4] (0.156 ppm) it was 0%; in assay [4] (0.313 ppm), 20%; in [4] (0.625 ppm), 90%; in assay [5] (0.078 ppm), 20%. The “% action” value in [5] (0.156 ppm) worked out at 50%.

`COC(c1ccc(Cl)cc1Cl)C(C)NC(=O)c1cn(C)nc1C(F)F` (racemic) [Comp. 1.001, 3-difluoromethyl-1-methyl-1H-pyrazole-4-carboxylic acid [2-(2,4-dichlorophenyl)-2-methoxy-1-methyl-ethyl]-amide]: the “% action” value in assay [6] (0.039 ppm) is 0%; in assay [6] (0.078 ppm) it was 0%; in assay [6] (0.156 ppm), 20%; in assay [6] (0.313 ppm) it was 20%; in assay [6] (0.625 ppm) it was 50%; in [6] (1.250 ppm) it was 70%. Further, the “% action” value in assay [7] (0.156 ppm) was 20%; in assay [7] (0.313 ppm), 20%; in assay [7] (0.625 ppm) it was 50%; in assay [7] (1.250 ppm), 70%; in assay [2] (0.625 ppm) it was 0%; in assay [2] (1.250 ppm), 0%. In addition, the “% action” value in [2] (2.500 ppm) was found to be 0%; in [2] (5.000 ppm) it was 7%; in assay [2] (10.000 ppm), 0%; in assay [8] (0.250 ppm) it was 0%; in assay [8] (0.500 ppm) it was 0%; in assay [8] (1.000 ppm), 0%. In addition, the “% action” value in assay [8] (2.000 ppm) is reported as 0%; in assay [9] (0.016 ppm), 0%; in [9] (0.031 ppm), 0%; in assay [9] (0.063 ppm), 20%; in [9] (0.125 ppm) it was 20%; in assay [10] (0.039 ppm) it was 0%. For the same compound, the “% action” value in assay [10] (0.078 ppm) was 20%; in assay [11] (0.031 ppm), 0%; in [11] (0.063 ppm), 0%; in assay [11] (0.125 ppm), 20%; in assay [11] (0.250 ppm), 20%; in assay [11] (0.500 ppm) it was 50%. Moreover, the “% action” value in assay [12] (0.016 ppm) is listed as 0%; in assay [12] (0.031 ppm), 0%; in [12] (0.063 ppm), 20%; in assay [12] (0.125 ppm), 50%; in assay [13] (2.500 ppm), 0%; in [13] (5.000 ppm) it was 0%. Further, the “% action” value in assay [13] (10.000 ppm), in assay [13] (20.000 ppm), in assay [14] (0.063 ppm), in assay [14] (0.125 ppm), in assay [14] (0.250 ppm) and in assay [14] (0.500 ppm) was 0% each time. The “% action” value was 0% in assay [14] (1.000 ppm); 20% in assay [14] (2.000 ppm); 0% in [3] (0.078 ppm); 0% in [3] (0.156 ppm); 20% in assay [3] (0.313 ppm); 20% in assay [3] (0.625 ppm). Besides, the “% action” value in [3] (1.250 ppm) stood at 50%; in assay [1] (0.078 ppm), 20%; in [1] (0.156 ppm) it was 70%; in assay [15] (0.313 ppm) it was 20%; in assay [15] (0.625 ppm), 50%; in [15] (1.250 ppm), 70%. Besides, the “% action” value in assay [4] (0.078 ppm) amounted to 0%; in assay [4] (0.156 ppm), 0%; in [4] (0.313 ppm), 20%; in [4] (0.625 ppm), 50%; in assay [4] (1.250 ppm), 70%; in assay [5] (0.078 ppm) it was 20%. The “% action” value was 70% in assay [5] (0.156 ppm); 70% in assay [16] (0.156 ppm); 90% in assay [16] (0.313 ppm); 0% in assay [17] (0.156 ppm); 20% in assay [17] (0.313 ppm); 50% in assay [17] (0.625 ppm). Further, the “% action” value in assay [17] (1.250 ppm) came to 70%; in assay [18] (0.063 ppm), 20%; in assay [18] (0.125 ppm) it was 20%; in assay [18] (0.250 ppm), 50%; in assay [18] (0.500 ppm) it was 50%; in assay [18] (1.000 ppm) it was 70%.

As for `CC(C)C1C2CCC1c1c(NC(=O)c3cn(C)nc3C(F)F)cccc12` (stereo not drawn) [isopyrazam, reference compound], the “% action” value is listed as 50% in assay [8] (0.125 ppm); 70% in assay [8] (0.250 ppm); 70% in assay [8] (0.500 ppm); 70% in assay [8] (1.000 ppm); 70% in [8] (2.000 ppm); 20% in assay [9] (0.031 ppm). The “% action” value is 20% in assay [9] (0.063 ppm), 0% in assay [12] (0.031 ppm), 20% in assay [12] (0.063 ppm) and 70% in [12] (0.125 ppm).

As for `CC(C)(C)C(O)(CCc1ccc(Cl)cc1)Cn1cncn1` (stereo not drawn) [Tebuconazol, tebuconazole, reference compound], the “% action” value in [7] (0.625 ppm) worked out at 20%.

`CO/C=C(/C(=O)OC)c1ccccc1Oc1cc(Oc2ccccc2C#N)ncn1` [Azoxystrobin, azoxystrobin]: the “% action” value in [10] (0.039 ppm) is recorded as 20%; in [10] (0.078 ppm), 50%; in [10] (0.156 ppm) it was 70%; in assay [13] (10.000 ppm) it was 50%; in assay [13] (20.000 ppm), 70%; in assay [15] (0.625 ppm), 0%. The “% action” value in [15] (1.250 ppm) came to 20%; in assay [15] (2.500 ppm), 20%; in assay [15] (5.000 ppm), 50%; in [17] (0.078 ppm), 0%; in [17] (0.156 ppm), 0%; in assay [17] (0.313 ppm), 20%. In addition, the “% action” value in [17] (0.625 ppm) is given as 20%; in [17] (1.250 ppm), 20%; in assay [17] (2.500 ppm), 20%; in [17] (5.000 ppm), 20%; in assay [18] (0.063 ppm) it was 0%; in [18] (0.125 ppm), 20%. The “% action” value is listed as 20% in assay [18] (0.250 ppm), 50% in assay [18] (0.500 ppm), 50% in assay [18] (1.000 ppm) and 50% in assay [18] (2.000 ppm).

As to `N#Cc1c[nH]cc1-c1cccc2c1OC(F)(F)O2` [Fludioxonil, fludioxonil, reference compound], the “% action” value in [11] (0.063 ppm) worked out at 20%; in assay [11] (0.125 ppm) it was 70%; in [14] (0.250 ppm), 20%; in [14] (0.500 ppm), 70%.

On to `Cc1cc(C2CC2)nc(Nc2ccccc2)n1` [Cyprodinil, cyprodinil], for which the “% action” value in assay [6] (0.039 ppm), in [6] (0.078 ppm), in assay [6] (0.156 ppm), in assay [6] (0.313 ppm), in assay [6] (0.625 ppm) and in [6] (1.250 ppm) was 0% throughout. Besides, the “% action” value in assay [6] (2.500 ppm), in assay [6] (5.000 ppm), in [16] (0.156 ppm), in [16] (0.313 ppm), in assay [16] (0.625 ppm) and in assay [16] (1.250 ppm) was 0% in each case.
